Experimental data from PubChem BioAssay (NCI).
≈ marks a conversion by molar mass, not a printed value.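 All cell lines were grown in 96-well plates and treated with compound for 48 hours. GI50 = concentration required for 50% inhibition of growth. TGI: total growth inhibition.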

Columns and labels:
Assay in all cases: NCI tumour cell line growth inhibition, 48 h
SNB-19 CNS = test system: SNB-19 CNS
HCC-2998 colon = test system: HCC-2998 colon
DU-145 prostate = test system: DU-145 prostate
NCI-H460 lung = test system: NCI-H460 lung
OVCAR-8 ovarian = test system: OVCAR-8 ovarian
SF-539 CNS = test system: SF-539 CNS
TK-10 renal = test system: TK-10 renal
SNB-75 CNS = test system: SNB-75 CNS
M14 melanoma = test system: M14 melanoma
EKVX NSCLC = test system: EKVX NSCLC
HCT-15 colon = test system: HCT-15 colon
SN12C renal = test system: SN12C renal
CCRF-CEM leukemia = test system: CCRF-CEM leukemia
ACHN renal = test system: ACHN renal
NCI-H522 lung = test system: NCI-H522 lung
786-0 renal = test system: 786-0 renal
SW-620 colon = test system: SW-620 colon
HS 578T breast = test system: HS 578T breast
UACC-62 melanoma = test system: UACC-62 melanoma
MCF7 breast = test system: MCF7 breast
T-47D breast = test system: T-47D breast
OVCAR-4 ovarian = test system: OVCAR-4 ovarian
NCI/ADR-RES ovarian = test system: NCI/ADR-RES ovarian
HL-60(TB) leukemia = test system: HL-60(TB) leukemia
SK-MEL-2 melanoma = test system: SK-MEL-2 melanoma
MDA-MB-231 breast = test system: MDA-MB-231 breast
U251 CNS = test system: U251 CNS
IGROV1 ovarian = test system: IGROV1 ovarian
HCT-116 colon = test system: HCT-116 colon
KM12 colon = test system: KM12 colon
SF-295 CNS = test system: SF-295 CNS
UO-31 renal = test system: UO-31 renal
RPMI-8226 leukemia = test system: RPMI-8226 leukemia
OVCAR-3 ovarian = test system: OVCAR-3 ovarian
OVCAR-5 ovarian = test system: OVCAR-5 ovarian
MOLT-4 leukemia = test system: MOLT-4 leukemia
SK-OV-3 ovarian = test system: SK-OV-3 ovarian
LOX IMVI melanoma = test system: LOX IMVI melanoma
NCI-H23 lung = test system: NCI-H23 lung
A498 renal = test system: A498 renal
SK-MEL-28 melanoma = test system: SK-MEL-28 melanoma
MALME-3M melanoma = test system: MALME-3M melanoma
SR leukemia = test system: SR leukemia
A549 NSCLC = test system: A549 NSCLC
BT-549 breast = test system: BT-549 breast
COLO 205 colon = test system: COLO 205 colon
MDA-MB-435 = test system: MDA-MB-435
SF-268 CNS = test system: SF-268 CNS
MDA-N = test system: MDA-N
HT29 colon = test system: HT29 colon
CAKI-1 renal = test system: CAKI-1 renal
HOP-92 NSCLC = test system: HOP-92 NSCLC
NCI-H226 lung = test system: NCI-H226 lung
HOP-62 NSCLC = test system: HOP-62 NSCLC
PC-3 prostate = test system: PC-3 prostate
SK-MEL-5 melanoma = test system: SK-MEL-5 melanoma
UACC-257 melanoma = test system: UACC-257 melanoma

Q: How did the GI50 (SNB-19 CNS) turn out when `C=CCN1CC2CON(C(=O)C(OC)(c3ccccc3)C(F)(F)F)C2C1C(C)C` (stereo not given) was run?
A: 54.5 µg/mL (≈ 132 µM)

Q: What about the GI50 (HCC-2998 colon) of the same molecule?
A: 18.1 µg/mL (≈ 44 µM)

Q: What about the TGI (HCC-2998 colon) of the same molecule?
A: 38.8 µg/mL

Q: And the GI50 (DU-145 prostate)?
A: 54 µg/mL (≈ 131 µM)

Q: And the GI50 (NCI-H460 lung)?
A: 28.9 µg/mL (≈ 70.1 µM)

Q: What about the GI50 (OVCAR-8 ovarian) of the same molecule?
A: 57.7 µg/mL (≈ 140 µM)

Q: And the GI50 (SF-539 CNS)?
A: 66.5 µg/mL (≈ 161 µM)

Q: What about the GI50 (TK-10 renal) of the same molecule?
A: 99.3 µg/mL (≈ 241 µM)

Q: What about the GI50 (SNB-75 CNS) of the same molecule?
A: 38.4 µg/mL (≈ 93.1 µM)

Q: What about the GI50 (M14 melanoma) of the same molecule?
A: 30.3 µg/mL (≈ 73.4 µM)

Q: What about the GI50 (EKVX NSCLC) of the same molecule?
A: 33.6 µg/mL (≈ 81.4 µM)

Q: What about the TGI (EKVX NSCLC) of the same molecule?
A: 99.1 µg/mL

Q: What about the GI50 (HCT-15 colon) of the same molecule?
A: 35.6 µg/mL (≈ 86.3 µM)

Q: What about the GI50 (SN12C renal) of the same molecule?
A: 41.9 µg/mL (≈ 102 µM)

Q: And the GI50 (CCRF-CEM leukemia)?
A: 15.2 µg/mL (≈ 36.8 µM)

Q: And the TGI (CCRF-CEM leukemia)?
A: 62 µg/mL

Q: And the GI50 (ACHN renal)?
A: 38.1 µg/mL (≈ 92.4 µM)

Q: What about the GI50 (NCI-H522 lung) of the same molecule?
A: 27.5 µg/mL (≈ 66.6 µM)

Q: What about the TGI (NCI-H522 lung) of the same molecule?
A: 78.8 µg/mL

Q: What about the GI50 (786-0 renal) of the same molecule?
A: 26.7 µg/mL (≈ 64.7 µM)

Q: And the GI50 (SW-620 colon)?
A: 62.8 µg/mL (≈ 152 µM)

Q: And the GI50 (HS 578T breast)?
A: 37.4 µg/mL (≈ 90.8 µM)

Q: What about the GI50 (UACC-62 melanoma) of the same molecule?
A: 45.1 µg/mL (≈ 109 µM)

Q: And the GI50 (MCF7 breast)?
A: 26.2 µg/mL (≈ 63.5 µM)

Q: And the TGI (MCF7 breast)?
A: 78.7 µg/mL

Q: And the GI50 (T-47D breast)?
A: 34.5 µg/mL (≈ 83.6 µM)

Q: What about the GI50 (OVCAR-4 ovarian) of the same molecule?
A: 67.1 µg/mL (≈ 163 µM)

Q: And the GI50 (NCI/ADR-RES ovarian)?
A: 34.2 µg/mL (≈ 82.8 µM)

Q: What about the GI50 (HL-60(TB) leukemia) of the same molecule?
A: 6.09 µg/mL (≈ 14.8 µM)

Q: What about the TGI (HL-60(TB) leukemia) of the same molecule?
A: 23.3 µg/mL

Q: What about the GI50 (SK-MEL-2 melanoma) of the same molecule?
A: 27.8 µg/mL (≈ 67.4 µM)

Q: And the GI50 (MDA-MB-231 breast)?
A: 41.4 µg/mL (≈ 100 µM)

Q: And the GI50 (U251 CNS)?
A: 29.8 µg/mL (≈ 72.2 µM)

Q: What about the GI50 (IGROV1 ovarian) of the same molecule?
A: 56.9 µg/mL (≈ 138 µM)

Q: What about the GI50 (HCT-116 colon) of the same molecule?
A: 24.2 µg/mL (≈ 58.6 µM)

Q: What about the GI50 (KM12 colon) of the same molecule?
A: 36.2 µg/mL (≈ 87.9 µM)

Q: And the GI50 (SF-295 CNS)?
A: 35.7 µg/mL (≈ 86.7 µM)

Q: And the GI50 (UO-31 renal)?
A: 26.3 µg/mL (≈ 63.7 µM)

Q: And the GI50 (RPMI-8226 leukemia)?
A: 9.82 µg/mL (≈ 23.8 µM)

Q: What about the TGI (RPMI-8226 leukemia) of the same molecule?
A: 41.7 µg/mL

Q: And the GI50 (OVCAR-3 ovarian)?
A: 36.3 µg/mL (≈ 88 µM)

Q: And the GI50 (OVCAR-5 ovarian)?
A: 32 µg/mL (≈ 77.6 µM)

Q: And the GI50 (MOLT-4 leukemia)?
A: 15 µg/mL (≈ 36.4 µM)

Q: And the TGI (MOLT-4 leukemia)?
A: 46.6 µg/mL

Q: And the GI50 (SK-OV-3 ovarian)?
A: 40.2 µg/mL (≈ 97.4 µM)

Q: And the GI50 (LOX IMVI melanoma)?
A: 26.6 µg/mL (≈ 64.5 µM)

Q: And the GI50 (NCI-H23 lung)?
A: 37.4 µg/mL (≈ 90.6 µM)

Q: What about the GI50 (A498 renal) of the same molecule?
A: 23.5 µg/mL (≈ 56.9 µM)

Q: And the TGI (A498 renal)?
A: 92 µg/mL

Q: What about the GI50 (SK-MEL-28 melanoma) of the same molecule?
A: 52.9 µg/mL (≈ 128 µM)

Q: And the GI50 (MALME-3M melanoma)?
A: 20 µg/mL (≈ 48.5 µM)

Q: And the TGI (MALME-3M melanoma)?
A: 54.5 µg/mL

Q: What about the GI50 (SR leukemia) of the same molecule?
A: 11.1 µg/mL (≈ 26.9 µM)

Q: And the TGI (SR leukemia)?
A: 65.1 µg/mL (≈ 158 µM)

Q: What about the GI50 (A549 NSCLC) of the same molecule?
A: 34.6 µg/mL (≈ 83.9 µM)

Q: And the GI50 (BT-549 breast)?
A: 30.1 µg/mL (≈ 73 µM)

Q: And the GI50 (COLO 205 colon)?
A: 26 µg/mL (≈ 62.9 µM)

Q: What about the GI50 (MDA-MB-435) of the same molecule?
A: 41.8 µg/mL (≈ 101 µM)

Q: And the GI50 (SF-268 CNS)?
A: 70.5 µg/mL (≈ 171 µM)

Q: What about the GI50 (MDA-N) of the same molecule?
A: 31.8 µg/mL (≈ 77.1 µM)

Q: Which TGI (SNB-19 CNS) does the source give for `COP(=O)(OC)C12CCOCCN1c1ccccc1C2=O` (stereo not given) here?
A: > 100 µM

Q: What about the TGI (HCC-2998 colon) of the same molecule?
A: > 100 µM

Q: And the TGI (DU-145 prostate)?
A: > 100 µM

Q: What about the TGI (NCI-H460 lung) of the same molecule?
A: > 100 µM

Q: What about the TGI (OVCAR-8 ovarian) of the same molecule?
A: > 100 µM

Q: What about the TGI (HT29 colon) of the same molecule?
A: > 100 µM

Q: What about the TGI (CAKI-1 renal) of the same molecule?
A: > 100 µM

Q: And the TGI (SF-539 CNS)?
A: > 100 µM

Q: What about the TGI (TK-10 renal) of the same molecule?
A: > 100 µM

Q: What about the TGI (SNB-75 CNS) of the same molecule?
A: > 100 µM

Q: What about the TGI (M14 melanoma) of the same molecule?
A: > 100 µM

Q: What about the TGI (EKVX NSCLC) of the same molecule?
A: > 100 µM

Q: What about the TGI (HCT-15 colon) of the same molecule?
A: > 100 µM

Q: And the TGI (SN12C renal)?
A: > 100 µM

Q: And the TGI (HOP-92 NSCLC)?
A: > 100 µM

Q: And the TGI (CCRF-CEM leukemia)?
A: > 100 µM

Q: And the TGI (ACHN renal)?
A: > 100 µM

Q: And the TGI (NCI-H522 lung)?
A: > 100 µM

Q: What about the TGI (NCI-H226 lung) of the same molecule?
A: > 100 µM

Q: And the TGI (786-0 renal)?
A: > 100 µM

Q: What about the TGI (SW-620 colon) of the same molecule?
A: > 100 µM

Q: What about the TGI (HS 578T breast) of the same molecule?
A: > 100 µM

Q: What about the TGI (UACC-62 melanoma) of the same molecule?
A: > 100 µM

Q: And the TGI (MCF7 breast)?
A: > 100 µM

Q: What about the TGI (T-47D breast) of the same molecule?
A: > 100 µM

Q: What about the TGI (OVCAR-4 ovarian) of the same molecule?
A: > 100 µM

Q: What about the TGI (NCI/ADR-RES ovarian) of the same molecule?
A: > 100 µM

Q: What about the TGI (HL-60(TB) leukemia) of the same molecule?
A: > 100 µM

Q: And the TGI (SK-MEL-2 melanoma)?
A: > 100 µM

Q: What about the TGI (MDA-MB-231 breast) of the same molecule?
A: > 100 µM

Q: And the TGI (HOP-62 NSCLC)?
A: > 100 µM

Q: And the TGI (U251 CNS)?
A: > 100 µM

Q: And the TGI (IGROV1 ovarian)?
A: > 100 µM

Q: And the TGI (HCT-116 colon)?
A: > 100 µM

Q: And the TGI (KM12 colon)?
A: > 100 µM

Q: What about the TGI (SF-295 CNS) of the same molecule?
A: > 100 µM

Q: And the TGI (UO-31 renal)?
A: > 100 µM

Q: What about the TGI (RPMI-8226 leukemia) of the same molecule?
A: > 100 µM

Q: And the TGI (OVCAR-3 ovarian)?
A: > 100 µM

Q: And the TGI (OVCAR-5 ovarian)?
A: > 100 µM

Q: What about the TGI (MOLT-4 leukemia) of the same molecule?
A: > 100 µM

Q: And the TGI (SK-OV-3 ovarian)?
A: > 100 µM

Q: And the TGI (NCI-H23 lung)?
A: > 100 µM

Q: What about the TGI (A498 renal) of the same molecule?
A: > 100 µM

Q: And the TGI (SK-MEL-28 melanoma)?
A: > 100 µM

Q: And the TGI (MALME-3M melanoma)?
A: > 100 µM

Q: And the TGI (A549 NSCLC)?
A: > 100 µM

Q: What about the TGI (BT-549 breast) of the same molecule?
A: > 100 µM

Q: And the TGI (COLO 205 colon)?
A: > 100 µM

Q: What about the TGI (PC-3 prostate) of the same molecule?
A: > 100 µM

Q: And the TGI (MDA-MB-435)?
A: > 100 µM

Q: What about the TGI (SK-MEL-5 melanoma) of the same molecule?
A: > 100 µM

Q: What about the TGI (UACC-257 melanoma) of the same molecule?
A: > 100 µM

Q: And the TGI (SF-268 CNS)?
A: > 100 µM

Q: What about the TGI (MDA-N) of the same molecule?
A: > 100 µM
